Patent US9284283B2, “Macrocyclic compounds for modulating IL-17” (ENSEMBLE THERAPEUTICS CORPORATION, priority 2012, dated 2016)
Several values for one entry are separate records, joined by “and”; a condition that tells them apart may be missing. Equal entries are not always repeated.

Assays:
[1] = target: T1, IL17A (Homo sapiens, UniProt Q16552); assay: Surface Plasmon Resonance (SPR) analysis of compound interactions with IL17A; conditions: SPR binding to IL17A
T1 sequence (Q16552 24-155): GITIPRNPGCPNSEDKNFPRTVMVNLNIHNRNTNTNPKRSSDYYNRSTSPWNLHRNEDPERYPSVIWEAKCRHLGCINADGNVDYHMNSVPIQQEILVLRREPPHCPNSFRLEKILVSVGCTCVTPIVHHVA
Experimental: SPR analysis was carried out with a GE Healthcare (Piscataway, N.J.) Biacore X100 system. Typically, the chip (NTA Biacore Biosensor chip; GE Healthcare BR-1000-34) was first conditioned by injection of 0.35 M EDTA, which also served to remove any immobilized proteins from previous runs. Before immobilization of the recombinant 6-His-tagged IL17, the chip was washed with 0.5 mM nickel chloride in NTA buffer (10 mM HEPES buffer, 0.15 M sodium chloride, 10 μM ethylene diamine tetraacetic acid, 0.005% v/v surfactant P20 (GE Healthcare BR-1000-54)) to form a nickel chelate on the chip. IL17 protein was immobilized onto a NTA chip through its 6-His tag. IL17A was typically injected at 0.25 μM for 60-120 seconds, followed by a stabilization step washing with NTA+0.5% DMSO for 120 seconds or longer.
Five 2-fold or 3-fold serial dilutions of test compound were injected serially onto the chip. All steps were conducted using NTA buffer containing 0.5% v/v dimethylsulfoxide (DMSO). Compounds were diluted from stock solutions of 10 mM concentration in 100% DMSO with NTA buffer to obtain 50 μM solutions in NTA+0.5% DMSO. Subsequent 2× or 3× dilutions were made in NTA+0.5% DMSO. Compound was generally injected for 180 seconds followed by washing the chip in buffer alone for 120 seconds. The rate of refractive index change (RU units/time) and the maximum extend of RU change was measured during the “on” phase of analyte injection, followed by measuring the rate during the “off” phase.
Kinetic parameter fits were conducted using the Biacore SPR Evaluation Program (GE Healthcare) for 1:1 molecular binding fits, after subtracting the baseline average of 2 or more runs in which no analyte was injected. This program then reports the best fit average for the “on” rate (Ka), the “off” rate (Kd) and the dissociation constant (KD) (Chaiken, I et al., Anal Biochem 201, 197-210 (1992)). A separate program in the Biacore SPR Evaluation Program then calculates the best fit for Kd based upon the extent of binding alone (RU units bound) at each concentration of analyte and reports the best fit Kd by best fit to a Lineweaver-Burke plot. Typically, the Kd value calculated through both means agreed within a factor of three.
The presence and activity of IL17 on the NTA chip was routinely confirmed three ways: • 1) An increase in response units (RU) upon immobilization confirms that the IL17 was immobilized on the chip; • 2) Anti-IL17 was also injected on the chip to confirm the presence of IL17; and • 3) IL17R was injected onto the chip to confirm that the immobilized IL17 retained its binding activity for its receptor. Negative controls to access specificity for compound binding were conducted by immobilizing unrelated, but his-tagged, proteins (such as cyclophilin D) and conducting the same analysis as done with IL17A.

[2] = target: T2, recombinant human IL17a (binding to its receptor IL17R) (Homo sapiens, UniProt Q16552); assay: IL-17 competition ELISA I (IL17a coated, IL17R/Fc binding)
T2 construct: purchased R&D Systems 317-ILB (IL17a); 177-IR (IL17R/Fc)
T2 sequence (Q16552 20-155 limits assumed): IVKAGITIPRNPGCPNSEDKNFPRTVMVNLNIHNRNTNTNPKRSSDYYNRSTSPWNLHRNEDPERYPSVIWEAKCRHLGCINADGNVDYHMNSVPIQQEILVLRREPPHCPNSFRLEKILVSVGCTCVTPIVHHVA
How it was run: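 Plates coated with 20 nM recombinant human IL17a received compound dilutions and 12 nM IL17R/Fc (final) for 30 min at room temperature. Bound receptor was detected with HRP anti-human Fc and TMB, read at 450 nm. IC50 came from a 4-parameter logistic fit between no-competitor and blank controls.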

[3] = system: IL-17A induced secretion of IL-6 in primary human RASF cells; assay: Inhibition of IL17A induced secretion of IL6 in human rheumatoid arthritis synovial fibroblast (RASF) cells; type: cell-based; conditions: Homo sapiens, Fibroblast
How it was run: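 Primary RASF cells (passage 2-8) stimulated 20 h at 37 °C with rhIL-17A (30 ng/mL) pre-incubated 1 h with compound (final 0.03-25 μM, 0.25% DMSO). Supernatant IL-6 measured by ELISA, normalized to WST1 viability; triplicates.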

[4] = target: T3, biotinylated human IL-17 (binding to IL17R/Fc) (Homo sapiens, UniProt Q16552); assay: IL-17 competition ELISA II (captured IL17R/Fc, biotinylated IL-17)
T3 construct: purchased R&D Systems 317-ILB (IL-17, biotinylated); 177-IR (IL17R/Fc)
T3 sequence (Q16552 20-155 limits assumed): T2 sequence (Q16552 20-155 limits assumed)
How it was run: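 Anti-human IgG-coated plates captured IL17R/Fc (10 nM), then compound (5-fold dilutions from 1 μM) and biotinylated human IL-17 (20 nM stock) were added for 30 min at room temperature in PBST. Bound IL-17 detected by streptavidin-HRP/TMB at 450 nm. IC50 from 4-parameter logistic fit between no-competitor and blank controls.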

SMILES | Kd [1] | IC50 [2] | IC50 [3] | IC50 [4]
COC(=O)[C@H]1CCCCNC(=O)CCCNC(=O)[C@H](Cc2ccc(NC(=O)[C@H](Cc3ccccc3F)NC(=O)Cc3ccccc3)cc2)NC(=O)CC2(CCCC2)CC(=O)N1 [Compound 101] | 1000 to 10000 nM |  |  | 
O=C1CC2(CCCC2)CC(=O)N[C@@H](C(=O)O)CCCCNC(=O)[C@H](Cc2ccc(NC(=O)[C@H](Cc3ccccc3F)NC(=O)Cc3ccccc3)cc2)N1 [Compound 102] | > 10000 nM |  |  | 
O=C1CCCNC(=O)[C@H](Cc2ccc(NC(=O)[C@H](Cc3ccccc3F)NC(=O)Cc3ccccc3)cc2)NC(=O)CC2(CCCC2)CC(=O)N[C@@H](C(=O)O)CCCCN1 [Compound 103] | > 10000 nM |  |  | 
COC(=O)[C@H]1CCCCNC(=O)CCCNC(=O)[C@H](Cc2ccc(NC(=O)[C@H](Cc3ccccc3)NC(=O)Cc3ccccc3)cc2)NC(=O)CC2(CCCC2)CC(=O)N1 [Compound 104] | 1000 to 10000 nM |  |  | 
COC(=O)[C@@H]1CCCCNC(=O)CCCNC(=O)[C@H](Cc2ccc(NC(=O)[C@H](Cc3ccccc3F)NC(=O)Cc3ccccc3)cc2)NC(=O)CC2(CCCC2)CC(=O)N1 [Compound 105] | 1000 to 10000 nM and 100 to 1000 nM |  |  | 
COC(=O)[C@@H]1CCCCNC(=O)CCCCCNC(=O)[C@@H](Cc2ccc(NC(=O)[C@H](Cc3ccccc3F)NC(=O)Cc3ccccc3)cc2)NC(=O)CC2(CCCC2)CC(=O)N1 [Compound 111] | 100 to 1000 nM |  |  | 
COC(=O)[C@@H]1CCCCNC(=O)CCCNC(=O)[C@@H](Cc2ccc(NC(=O)[C@H](Cc3ccccc3)NC(=O)Cc3ccccc3)cc2)NC(=O)CC2(CCCC2)CC(=O)N1 [Compound 114] | 100 to 1000 nM |  |  | 
COC(=O)[C@@H]1CCCCNC(=O)CCCNC(=O)[C@@H](Cc2ccc(NC(=O)[C@H](Cc3ccccc3)NC(=O)c3ccccc3)cc2)NC(=O)CC2(CCCC2)CC(=O)N1 [Compound 115] | 100 to 1000 nM |  |  | 
COC(=O)[C@@H]1CCCCNC(=O)CCCNC(=O)[C@@H](Cc2ccc(NC(=O)[C@H](Cc3cccc(F)c3)NC(=O)Cc3ccccc3)cc2)NC(=O)CC2(CCCC2)CC(=O)N1 [Compound 116] | 100 to 1000 nM |  |  | 
COC(=O)[C@@H]1CCCCNC(=O)CCCNC(=O)[C@@H](Cc2ccc(NC(=O)[C@H](Cc3cccc(F)c3)NC(=O)c3ccccc3)cc2)NC(=O)CC2(CCCC2)CC(=O)N1 [Compound 117] | 100 to 1000 nM |  |  | 
COC(=O)[C@@H]1CCCCNC(=O)CCCNC(=O)[C@@H](Cc2ccc(NC(=O)[C@H](Cc3ccc(F)cc3)NC(=O)c3ccccc3)cc2)NC(=O)CC2(CCCC2)CC(=O)N1 [Compound 119] | 100 to 1000 nM |  |  | 
COC(=O)[C@@H]1CCCCNC(=O)CCCNC(=O)[C@@H](Cc2ccc(NC(=O)[C@H](Cc3ccccc3Br)NC(=O)c3ccccc3)cc2)NC(=O)CC2(CCCC2)CC(=O)N1 [Compound 121] | 100 to 1000 nM |  |  | 
CC[C@H](C)[C@H](NC(=O)c1ccccc1)C(=O)Nc1ccc(C[C@H]2NC(=O)CC3(CCCC3)CC(=O)N[C@H](C(=O)OC)CCCCNC(=O)CCCNC2=O)cc1 [Compound 123] | 1000 to 10000 nM |  |  | 
C[C@H]1NC(=O)[C@@H](Cc2ccc(NC(=O)[C@@H](NC(=O)c3cccnc3)C3CCCCC3)cc2)NC(=O)CC2(CCCC2)CC(=O)NCCCCCNC1=O [Compound 361] |  | 100 to 1000 nM | 1000 to 10000 nM | < 100 nM
C[C@H]1NC(=O)[C@@H](Cc2ccc(NC(=O)[C@H](Cc3ccccc3Cl)NC(=O)Cc3ccccc3)cc2)NC(=O)CC2(CCCC2)CC(=O)N[C@H](C(=O)O)CCCCNC1=O [Compound 367] |  | < 100 nM | < 100 nM | < 100 nM
C[C@H]1NC(=O)[C@@H](Cc2ccc(NC(=O)[C@H](Cc3ccccc3Cl)NC(=O)c3cccnc3)cc2)NC(=O)CC2(CCCC2)CC(=O)N[C@H](C(=O)O)CCCCNC1=O [Compound 368] |  | 100 to 1000 nM | 100 to 1000 nM | < 100 nM
C[C@H]1NC(=O)[C@@H](Cc2ccc(NC(=O)[C@@H](NC(=O)Cc3ccccc3)C3CCCCC3)cc2)NC(=O)CC2(CCCC2)CC(=O)N[C@H](C(=O)O)CCCCNC1=O [Compound 369] |  | < 100 nM | < 100 nM | < 100 nM
O=C1CNC(=O)[C@@H](Cc2ccc(NC(=O)[C@@H](NC(=O)Cc3cccc(O)c3)C3CCCCC3)cc2)NC(=O)CC2(CCCC2)CC(=O)NCCCCCN1 [Compound 378] |  | 100 to 1000 nM | 100 to 1000 nM | < 100 nM
